Our source for the class values is patent publication US20050197350A1, “Novel quinoline, tetrahydroquinazoline, and pyrimidine derivatives and methods of treatment related to the use thereof” (TAISHO PHARMACEUTICAL CO., LTD., priority 2003, published 2005).

The first assay deals with MCH receptors. Put plainly: MCH receptor activity class (method not given). As to conditions: MCH receptor activity class 1-3 (percent of control at 10^-7 M or IC50).
In the case of `CCOc1ccccc1NC(=S)N[C@H]1CC[C@@H](Nc2nccc(N(C)C)n2)CC1` [compound 2347], the class is 3 (Class 3 The value of percent of control at 10^−7 M was more than 60% or the value of IC50 was more than 200 nM.).

Regarding `CN(C)c1nc(N[C@H]2CC[C@@H](CNC(=O)Nc3c(Cl)cccc3C(F)(F)F)CC2)nc2c1CCCC2` [compound 2465], the class is recorded as 1 (Class 1: The value of percent of control at 10^−7 M was less than 40% or the value of IC50 was less than 50 nM.).

Regarding `Cc1cc(C)c(NC(=O)NC[C@H]2CC[C@@H](Nc3nccc(N(C)C)n3)CC2)c(C)c1` [compound 2413, N-[(cis-4-{[4-(dimethylamino)pyrimidin-2-yl]amino}cyclohexyl)methyl]-N′-mesitylurea], the class was 1 (Class 1: The value of percent of control at 10^−7 M was less than 40% or the value of IC50 was less than 50 nM.).

Still in this assay, the particulars now being: MCH receptor; class by percent of control at 10^-7 M or IC50.
In the case of `COc1cccc(CC(=O)NC[C@H]2CC[C@@H](Nc3cc(N(C)C)c4ccccc4n3)CC2)c1` [compound 194], the class is 3 (Class 3 The value of percent of control at 10^−7 M was more than 60% or the value of IC50 was more than 200 nM.).

Staying with this assay, now noted: activity class per percent of control at 10^-7 M or IC50.
In the case of `COc1cc(CN[C@H]2CC[C@@H](Nc3cc(N(C)C)c4ccccc4n3)CC2)cc(OC)c1OC` [compound 1099], the class is given as 3 (Class 3 The value of percent of control at 10^−7 M was more than 60% or the value of IC50 was more than 200 nM.).

Staying with this assay, now noted: class by percent of control at 10^-7 M or IC50.
As to `CN(C)c1nc(N[C@H]2CC[C@@H](CNC(=O)Cc3cccs3)CC2)nc2c1CCCC2` [compound 615], the class was 3 (Class 3 The value of percent of control at 10^−7 M was more than 60% or the value of IC50 was more than 200 nM.).

Take `COc1cc(CNC[C@H]2CC[C@@H](Nc3nc4c(c(N(C)C)n3)CCCC4)CC2)cc(OC)c1O` [compound 1375]: the class was 3 (Class 3 The value of percent of control at 10^−7 M was more than 60% or the value of IC50 was more than 200 nM.).

On to `CN(C)c1cc(N[C@H]2CC[C@@H](CNC(=O)c3cccc(Cl)c3Cl)CC2)nc2ccccc12` [compound 224], for which the class was 3 (Class 3 The value of percent of control at 10^−7 M was more than 60% or the value of IC50 was more than 200 nM.).

On to `COc1cc(CNC[C@H]2CC[C@@H](Nc3nc4c(c(N(C)C)n3)CCCC4)CC2)cc(Br)c1OC` [compound 1431], for which the class is 3 (Class 3 The value of percent of control at 10^−7 M was more than 60% or the value of IC50 was more than 200 nM.).

With `COc1ccc2c(CC(=O)N[C@H]3CC[C@@H](Nc4nccc(N(C)C)n4)CC3)cc(=O)oc2c1` [compound 854], the class was 3 (Class 3 The value of percent of control at 10^−7 M was more than 60% or the value of IC50 was more than 200 nM.).

As for `CN(C)c1ccnc(N[C@H]2CC[C@@H](NCc3cncc(-c4ccc(F)cc4)c3)CC2)n1` [compound 1235], the class is recorded as 2 (Class 2: The value of percent of control at 10^−7 M was from 40% to 60% or the value of IC′50 was from 50 nM to 200 nM.).

Regarding `CN(C)c1nc(N[C@H]2CC[C@@H](NC(=O)Nc3ccc4c(c3)OCO4)CC2)nc2c1CCCC2` [compound 1718], the class is reported as 3 (Class 3 The value of percent of control at 10^−7 M was more than 60% or the value of IC50 was more than 200 nM.).

On to `CN(C)c1ccnc(N[C@H]2CC[C@@H](NC(=O)c3cc(Br)c(Br)o3)CC2)n1` [compound 845], for which the class is 1 (Class 1: The value of percent of control at 10^−7 M was less than 40% or the value of IC50 was less than 50 nM.).

On to `CN(C)c1cc(N[C@H]2CC[C@@H](NC(=O)Nc3ccc4c(c3)OCCCO4)CC2)nc2ccccc12` [compound 2164], for which the class is listed as 3 (Class 3 The value of percent of control at 10^−7 M was more than 60% or the value of IC50 was more than 200 nM.).

The assay is the same for the next values; noted with them: class by percent of control at 10^−7 M or IC50.
With `Cc1cnc(N[C@H]2CC[C@@H](C(=O)N3CCc4ccccc4C3)CC2)nc1N(C)C` [compound 2793], the class is listed as 3 (Class 3 The value of percent of control at 10^−7 M was more than 60% or the value of IC50 was more than 200 nM.).
